Converted amounts (≈) assume the structure as drawn. The source made the active and inactive calls. The rule behind the calls is not given here.
Columns and labels:
Bacillus subtilis = assay: Antimicrobial activity against Bacillus subtilis assessed as inhibition of bacterial growth after 24 hrs by broth micro-dilution assay; format: functional
[1] = Induction of membrane leakage in large unilamellar vesicles composed of 1,2-dioleoyl-sn-glycero-3-phosphocholine and 0.2% lipid II […] at 5 uM by carboxyfluorescein based fluorescence spectroscopy; format: functional
[2] = Binding affinity affinity to lipid II (unknown origin) by nisin competitive assay

Row | MIC (Bacillus subtilis) [µM] | Activity [2] | Structure (SMILES) | Activity [1]
1 | 167 (≈ 192 µg/mL) | – | C=C1NC(=O)[C@H]([C@@H](C)CC)NC(=O)[C@@H](NC(=O)/C(=C/C)NC(=O)[C@@H](N)[C@@H](C)CC)CSC[C@@H](C(=O)N[C@@H]2C(=O)N3CCC[C@H]3C(=O)NCC(=O)N[C@H](C(=O)N[C@@H](CCCCN)C(N)=O)CS[C@H]2C)NC(=O)[C@H](CC(C)C)NC1=O | inactive
2 | 4.07 (≈ 11.4 µg/mL) | – | C=C1NC(=O)[C@H]([C@@H](C)CC)NC(=O)[C@@H](NC(=O)/C(=C/C)NC(=O)[C@@H](N)[C@@H](C)CC)CSC[C@@H](C(=O)N[C@@H]2C(=O)N3CCC[C@H]3C(=O)NCC(=O)N[C@H](C(=O)N[C@@H](CCCCN)C(=O)N[C@@H]3C(=O)NCC(=O)N[C@@H](C)C(=O)N[C@@H](CC(C)C)C(=O)N[C@@H](CCSC)C(=O)NCC(=O)N[C@H](C(=O)N[C@@H](CC(N)=O)C(=O)N[C@@H](CC(C)C)c4cn([C@@H](CCCCN)C(=O)N[C@@H]5C/C=C/C[C@@H]6NC(=O)[C@@H](C/C=C/C[C@@H](C(=O)N[C@@H](CCCCC)C(=O)NC)NC(=O)[C@H](CC(N)=O)NC6=O)NC(=O)[C@H](C)NC5=O)nn4)CS[C@H]3C)CS[C@H]2C)NC(=O)[C@H](CC(C)C)NC1=O | inactive
3 | – | Active | C=C1NC(=O)[C@H]([C@@H](C)CC)NC(=O)[C@@H](NC(=O)/C(=C/C)NC(=O)[C@@H](N)[C@@H](C)CC)CSC[C@@H](C(=O)N[C@@H]2C(=O)N3CCC[C@H]3C(=O)NCC(=O)N[C@H](C(=O)N[C@@H](CCCCN)C(=O)N[C@@H]3C(=O)NCC(=O)N[C@@H](C)C(=O)N[C@@H](CC(C)C)C(=O)N[C@@H](CCSC)C(=O)NCC(=O)N[C@H](C(=O)N[C@@H](CC(N)=O)C(=O)NCc4cn([C@@H](CCCCN)C(=O)N[C@@H]5C/C=C/C[C@@H]6NC(=O)[C@@H](C/C=C/C[C@@H](C(=O)OC)NC(=O)[C@H](CC(N)=O)NC6=O)NC(=O)[C@H](C)NC5=O)nn4)CS[C@H]3C)CS[C@H]2C)NC(=O)[C@H](CC(C)C)NC1=O | inactive
4 | 6.2 (≈ 11.7 µg/mL) | Active | C=C1NC(=O)[C@H]([C@@H](C)CC)NC(=O)[C@@H](NC(=O)/C(=C/C)NC(=O)[C@@H](N)[C@@H](C)CC)CSC[C@@H](C(=O)N[C@@H]2C(=O)N3CCC[C@H]3C(=O)NCC(=O)N[C@H](C(=O)N[C@@H](CCCCN)C(=O)N[C@@H]3C(=O)NCC(=O)N[C@@H](C)C(=O)N[C@@H](CC(C)C)C(=O)N[C@@H](CCSC)C(=O)NCC(=O)N[C@H](C(=O)N[C@@H](CC(N)=O)C(=O)O)CS[C@H]3C)CS[C@H]2C)NC(=O)[C@H](CC(C)C)NC1=O | inactive
